Experimental data as given in patent publication US7723021B2, “Methods for treating lentivirus infections” (The J. David Gladstone Institutes, priority 2003, dated 2010).
Entries after “also recorded” stand apart in the source; their conditions may differ. Residues, ends and D or L forms follow the SMILES beside them. *: point of attachment. Cbz = O=C(OCc1ccccc1)*

System: Vif-induced degradation of polyubiquitylated APOBEC3G
Assay: 293T cells cotransfected with APOBEC3G-HA, His-ubiquitin and Vif, with MG132, anti-HA immunoblot
Type: cell-based
Conditions: MG132 for the final 6 hours of culture
Protocol: To obtain further insight into the mechanism of Vif-induced degradation of APOBEC3G, it was investigated whether APOBEC3G is modified by ubiquitylation. APOBEC3G and His-ubiquitin expression vectors (Treier et al., 1994) were cotransfected into 293T cells in the presence or absence of Vif expression vector. After 48 hours in culture, cellular lysates were prepared. […] Immunoblotting of lysates prepared in the absence of APOBEC3G-HA confirmed that anti-HA antibodies selectively reacted with modified forms of APOBEC3G (FIG. 7C, lane 10). Coexpression of Vif was associated with a complete loss of these polyubiquitylated APOBEC3G species as well as diminished expression of unmodified APOBEC3G (FIG. 7C, lanes 6 and 8). To investigate whether the 26S proteasome mediated Vif-induced degradation of these polyubiquitylated APOBEC3G protein species, parallel experiments were performed in the presence of the proteasome inhibitor, MG132. […] However, it was also observed in multiple experiments that one of the many APOBEC3G degradation products appearing in Vif-expressing cells increased after the addition of MG132 (FIG. 7C, compare lanes 7 and 8). These findings raise the possibility that Vif action may involve multiple pathways including the targeting of select proteolytic fragments of APOBEC3G for degradation by the 26S proteasome.
FIG. 7. HIV-1 Vif induces degradation of APOBEC3G, and polyubiquitylated forms of APOBEC3G form a major target for Vif induced degradation. (A and B) Vif promotes degradation or extensive proteolysis of APOBEC3G as reflected by the loss of both N- and C-terminal immunoreactive epitopes. Graded amounts of expression vector DNA encoding HA-APOBEC3G or APOBEC3G-HA were co-transfected with and without Vif expression vector DNA into 293T cells. Cellular lysates prepared from these cultures were analyzed by immunoblotting with anti-HA antibodies. […] Note that Vif expression induces a loss of anti-HA immunoreactivity regardless of whether the HA epitope is positioned at the N- or C-terminus of APOBEC3G. (C) APOBEC3G is polyubiquitylated and Vif induces degradation of (Ub)n-APOBEC3G apparently by a proteasome-independent mechanism. 293T cells were cotransfected with APOBEC3G-HA and his-ubiquitin expression vectors in the presence or absence of Vif expression vector. 48 hours later, cellular lysates were prepared. As indicated, select cultures were supplemented with the proteasome inhibitor, MG132, for the final 6 hours of culture. Lysates were analyzed by immunoblotting with anti-HA antibodies. […] In addition to the polyubiquitylated forms of APOBEC3G-HA, degradation products of APOBEC3G-HA were apparent both in the presence and absence of Vif expression.

CC(C)C[C@@H](C=O)NC(=O)[C@H](CC(C)C)NC(=O)[C@H](CC(C)C)NC(=O)OCc1ccccc1 [MG132] (Cbz-Leu-Leu-Leu-aldehyde)
Vif-dependent disappearance of polyubiquitylated APOBEC3G: did not block; also recorded: not blocked
accumulation of polyubiquitylated proteins within the cells: increased accumulation
levels of unmodified APOBEC3G in the presence of Vif: did not block the Vif-dependent disappearance of polyubiquitylated APOBEC3G or increase levels of the unmodified protein
one of the APOBEC3G degradation products in Vif-expressing cells: increased in quantity
